Test results from BindingDB's records for PubMed 8627566 (Hoechst Marion Roussel, 1996).
pKi: −log10 of the molar value. Starred links: 1 amine or outer side, 2 acyl side, 3 side chain; linkers in the order of their positions; H or OH if unused. Positions of bridges follow the written chain, without caps; N, C: chain ends. Non-standard residues stand in square brackets, D forms with d. Residues, ends and D or L forms follow the SMILES beside them. *: point of attachment. X2 = CN(C(=Cc1ccc(O)cc1)C(=O)[*:2])[*:1]; X1 = CCCCCc1ccccc1CCC(=O)*

Experiments:
Substance-K receptor [1] = target: T1, Substance-K receptor (Bos taurus, UniProt P05363)
T1 sequence (P05363 whole entry): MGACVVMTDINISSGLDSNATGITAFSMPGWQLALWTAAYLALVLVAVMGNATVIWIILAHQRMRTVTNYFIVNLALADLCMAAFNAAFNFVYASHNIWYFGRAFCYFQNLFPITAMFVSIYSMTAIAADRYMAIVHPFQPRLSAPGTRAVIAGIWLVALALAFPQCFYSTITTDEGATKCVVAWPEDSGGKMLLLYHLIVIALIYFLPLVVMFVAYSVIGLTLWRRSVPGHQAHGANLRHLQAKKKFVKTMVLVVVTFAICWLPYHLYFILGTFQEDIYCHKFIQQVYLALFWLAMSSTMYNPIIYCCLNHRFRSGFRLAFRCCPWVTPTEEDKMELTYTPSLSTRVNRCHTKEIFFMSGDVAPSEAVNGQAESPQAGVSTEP

Substance-K receptor [2] = target: T2, Substance-K receptor (Homo sapiens, UniProt P21452)
T2 sequence (P21452 whole entry): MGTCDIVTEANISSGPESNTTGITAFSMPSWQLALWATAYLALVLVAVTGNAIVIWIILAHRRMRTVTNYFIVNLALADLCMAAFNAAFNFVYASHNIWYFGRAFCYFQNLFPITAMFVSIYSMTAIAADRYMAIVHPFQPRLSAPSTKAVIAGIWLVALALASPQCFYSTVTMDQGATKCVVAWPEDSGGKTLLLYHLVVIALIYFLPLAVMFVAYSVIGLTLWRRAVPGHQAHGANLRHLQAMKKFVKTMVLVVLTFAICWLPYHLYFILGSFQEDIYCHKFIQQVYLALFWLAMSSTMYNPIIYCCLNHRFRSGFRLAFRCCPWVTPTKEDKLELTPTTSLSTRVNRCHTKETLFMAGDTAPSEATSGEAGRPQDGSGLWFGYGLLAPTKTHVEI

Substance-P receptor [3] = target: Substance-P receptor (Cavia porcellus, UniProt P30547)
Sequence of Substance-P receptor (Cavia porcellus, UniProt P30547) (P30547 whole entry): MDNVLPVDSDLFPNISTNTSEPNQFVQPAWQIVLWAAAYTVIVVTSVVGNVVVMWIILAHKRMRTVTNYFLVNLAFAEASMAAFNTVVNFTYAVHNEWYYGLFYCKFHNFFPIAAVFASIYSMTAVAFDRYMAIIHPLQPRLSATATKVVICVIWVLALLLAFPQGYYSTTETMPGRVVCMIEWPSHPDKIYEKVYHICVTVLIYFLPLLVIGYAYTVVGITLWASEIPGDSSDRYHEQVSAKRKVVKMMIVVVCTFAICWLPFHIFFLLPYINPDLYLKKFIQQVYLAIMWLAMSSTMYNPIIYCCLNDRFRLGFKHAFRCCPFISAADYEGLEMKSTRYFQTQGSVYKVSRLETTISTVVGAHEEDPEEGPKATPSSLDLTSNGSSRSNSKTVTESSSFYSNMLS

Substance-P receptor [4] = target: Substance-P receptor (Homo sapiens, UniProt P25103)
Sequence of Substance-P receptor (Homo sapiens, UniProt P25103) (P25103 whole entry): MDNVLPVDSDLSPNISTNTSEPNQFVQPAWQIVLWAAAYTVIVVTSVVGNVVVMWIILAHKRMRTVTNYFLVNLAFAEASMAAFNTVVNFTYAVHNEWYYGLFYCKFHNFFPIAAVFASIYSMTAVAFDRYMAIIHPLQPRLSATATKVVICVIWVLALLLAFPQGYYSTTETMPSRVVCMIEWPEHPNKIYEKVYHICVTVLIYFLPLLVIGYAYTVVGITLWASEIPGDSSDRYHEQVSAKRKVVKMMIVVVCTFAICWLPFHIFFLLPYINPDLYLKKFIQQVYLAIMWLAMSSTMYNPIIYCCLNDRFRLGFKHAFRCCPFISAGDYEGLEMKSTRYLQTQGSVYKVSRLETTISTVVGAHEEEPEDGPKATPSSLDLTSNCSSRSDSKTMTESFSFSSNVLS

Substance-P receptor [5] = target: Substance-P receptor (Rattus norvegicus, UniProt P14600)
Sequence of Substance-P receptor (Rattus norvegicus, UniProt P14600) (P14600 whole entry): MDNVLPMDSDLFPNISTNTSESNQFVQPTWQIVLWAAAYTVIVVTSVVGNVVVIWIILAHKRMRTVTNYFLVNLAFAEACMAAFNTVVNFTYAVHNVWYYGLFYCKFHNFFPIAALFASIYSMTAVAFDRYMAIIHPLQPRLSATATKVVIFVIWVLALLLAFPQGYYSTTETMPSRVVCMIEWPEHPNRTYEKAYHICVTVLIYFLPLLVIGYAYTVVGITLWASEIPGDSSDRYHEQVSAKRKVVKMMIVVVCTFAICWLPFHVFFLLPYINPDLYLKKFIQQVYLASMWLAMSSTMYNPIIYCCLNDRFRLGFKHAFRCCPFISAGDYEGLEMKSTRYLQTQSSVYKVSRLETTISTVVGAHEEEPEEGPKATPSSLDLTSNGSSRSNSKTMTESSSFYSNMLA

Neuromedin-K receptor = target: T3, Neuromedin-K receptor (Cavia porcellus, UniProt P30098)
T3 sequence (P30098 whole entry): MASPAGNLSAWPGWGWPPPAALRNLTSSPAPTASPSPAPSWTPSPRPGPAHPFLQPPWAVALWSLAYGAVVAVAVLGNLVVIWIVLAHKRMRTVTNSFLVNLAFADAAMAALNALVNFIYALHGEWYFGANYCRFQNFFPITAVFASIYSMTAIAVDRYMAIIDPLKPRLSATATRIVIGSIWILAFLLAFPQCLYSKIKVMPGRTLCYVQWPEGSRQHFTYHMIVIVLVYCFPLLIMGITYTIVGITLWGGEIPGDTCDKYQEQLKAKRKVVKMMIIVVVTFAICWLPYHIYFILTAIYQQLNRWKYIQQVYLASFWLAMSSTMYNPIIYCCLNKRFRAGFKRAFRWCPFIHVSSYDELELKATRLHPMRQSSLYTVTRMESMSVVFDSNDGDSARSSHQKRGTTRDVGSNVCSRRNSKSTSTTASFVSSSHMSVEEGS

Substance-K receptor [6] = target: T4, Substance-K receptor (Mesocricetus auratus, UniProt P51144)
T4 sequence (P51144 whole entry): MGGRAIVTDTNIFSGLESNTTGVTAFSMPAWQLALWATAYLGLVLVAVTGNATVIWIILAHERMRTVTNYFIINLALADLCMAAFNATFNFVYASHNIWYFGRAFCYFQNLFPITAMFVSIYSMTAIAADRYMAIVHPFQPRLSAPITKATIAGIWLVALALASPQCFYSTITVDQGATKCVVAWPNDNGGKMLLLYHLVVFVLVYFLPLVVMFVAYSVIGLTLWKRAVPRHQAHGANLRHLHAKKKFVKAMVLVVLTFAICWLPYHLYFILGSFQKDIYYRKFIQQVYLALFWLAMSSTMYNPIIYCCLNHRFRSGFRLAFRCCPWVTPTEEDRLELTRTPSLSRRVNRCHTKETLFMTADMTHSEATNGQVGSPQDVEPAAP

Compound	pKi (Substance-K receptor [1])	pKi (Substance-K receptor [2])	pKi (Substance-P receptor [3])	pKi (Substance-P receptor [4])	pKi (Substance-P receptor [5])	pKi (Neuromedin-K receptor)	pKi (Substance-K receptor [6])
COc1cc(C(=O)N2CC[C@@](CCN3CCC(C(N)=O)(c4ccccc4)CC3)(c3ccc(Cl)c(Cl)c3)C2)cc(OC)c1OC [MDL 105,212A (R)-enantiomer]	8.08	8.10	8.52	8.43	–	–	–
COc1ccccc1CC(=N)N1C[C@@H]2C(=O)CCC(c3ccccc3)(c3ccccc3)[C@@H]2C1 [RP-67580]	–	–	7.44	–	8.08	–	–
CN(Cc1ccccc1)C(=O)[C@@H](Cc1ccc2ccccc2c1)NC(=O)C1C[C@@H](O)CN1C(=O)c1cn(C)c2ccccc12 (stereo not given in full) [FK 888]	–	5.82	8.50	8.83	5.68	5.25	–
CSCC[C@H](NC(=O)[C@H](CC(C)C)NC(=O)CNC(=O)[C@@H](NC(=O)[C@H](Cc1ccccc1)NC(=O)[C@H](CO)NC(=O)[C@H](CC(=O)O)NC(=O)[C@@H](NC(=O)[C@H](CCCCN)NC(=O)[C@@H](N)Cc1cnc[nH]1)[C@@H](C)O)C(C)C)C(N)=O [Neurokinin alpha]	–	–	–	–	–	–	8.74
COc1cc(C(=O)N2CC[C@](CCN3CCC(C(N)=O)(c4ccccc4)CC3)(c3ccc(Cl)c(Cl)c3)C2)cc(OC)c1OC	–	7.68	8.23	8.15	–	7.27	–
COc1cc(C(=O)N2CC[C@@](CCN3CCC(C(N)=O)(c4ccccc4)CC3)(c3ccc(Cl)c(Cl)c3)C2)cc(OC)c1OC	8.07	8.08	8.67	8.51	6.39	7.68	8.16
COc1ccccc1CN[C@H]1C2CCN(CC2)[C@H]1C(c1ccccc1)c1ccccc1	–	< 5.00	–	–	–	< 5.00	–
CCCCCc1ccccc1CCC(=O)NC1C(=O)N(C)C(=Cc2ccc(O)cc2)C(=O)NC(CC(C)C)C(=O)NC(Cc2ccccc2)C(=O)NC(C(C)O)C(=O)NC(CC(N)=O)C(=O)NC(CO)C(=O)OC1C (stereo not given) [CAS_6437864] (X1-T[X2]LFTNS; ester 1-C; configuration not given here)	6.51	6.36	7.01	6.67	6.64	5.45	5.44
COc1cc(C(=O)N2CC[C@](CCN3CCC(C(N)=O)(c4ccccc4)CC3)(c3ccc(Cl)c(Cl)c3)C2)cc(OC)c1OC [1-{2-[(R)-3-(3,4-Dichloro-phenyl)-1-(3,4,5-trimethoxy-benzoyl)-pyrrolidin-3-yl]-ethyl}-4-phenyl-piperidine-4-carboxylic acid amide]	6.68	6.12	6.74	6.80	5.66	5.64	6.15
CC(=O)NC1(c2ccccc2)CCN(CCC(CN(C)C(=O)c2ccccc2)c2ccc(Cl)c(Cl)c2)CC1 (stereo not given) [SR 48968]	9.15	9.36	6.66	6.23	–	6.68	8.14
